These are literature values, as cited in US10576065B2, “Pharmaceutical composition containing rifaximin alpha and delta” (Sandoz AG, priority 2016, dated 2020).

The term AUC denotes concentration integrated over time. As usually defined, the Cmax is the maximum level reached in the sampled fluid or tissue.

For series [1] the following is noted: human.
Details of series [2]: AUC: concentration or dose not given beside the values. The settings on record: dogs.
The mark [3] stands for this setting: film coated tablets, 400 mg (Blandizzi et al.), listed as Prior art alpha.
Setting [4] is: film coated tablets, 400 mg (Blandizzi et al.).

Each structure is given as a SMILES string. Where two headings read alike, the source gives them in different places.

As for `CO[C@H]1/C=C/O[C@@]2(C)Oc3c(C)c(O)c4c(O)c(c5c(nc6cc(C)ccn65)c4c3C2=O)NC(=O)/C(C)=C\C=C\[C@H](C)[C@H](O)[C@@H](C)[C@@H](O)[C@@H](C)[C@H](OC(C)=O)[C@@H]1C` [Alpha, rifaximin], the area under the curve (AUC) in series [1] (200 mg) was 5.77 ng·h/mL; in series [1] (400 mg), 13.03 ng·h/mL; in series [2], 17 ng·h/mL. Further, the Cmax in series [1] (200 mg) is 1.59 ng/mL; in series [1] (400 mg) it was 3.54 ng/mL; in series [1] (setting [3]), 3.54 ng/mL; in series [2] it was 2.6 ng/mL. Further, the AUCt in series [1] (setting [3]) was 13.03 ng·h/mL.
Regarding `CO[C@H]1/C=C/O[C@@]2(C)Oc3c(C)c(O)c4c(O)c(c5c(nc6cc(C)ccn65)c4c3C2=O)NC(=O)/C(C)=C\C=C\[C@H](C)[C@H](O)[C@@H](C)[C@@H](O)[C@@H](C)[C@H](OC(C)=O)[C@@H]1C` [Beta, rifaximin], in series [2], the AUC was 12 ng·h/mL and the Cmax was 1.1 ng/mL.
As to `CO[C@H]1/C=C/O[C@@]2(C)Oc3c(C)c(O)c4c(O)c(c5c(nc6cc(C)ccn65)c4c3C2=O)NC(=O)/C(C)=C\C=C\[C@H](C)[C@H](O)[C@@H](C)[C@@H](O)[C@@H](C)[C@H](OC(C)=O)[C@@H]1C` [Delta, rifaximin], in series [2], the AUC is 830 ng·h/mL and the Cmax is 308.3 ng/mL.
On to `CO[C@H]1/C=C/O[C@@]2(C)Oc3c(C)c(O)c4c(O)c(c5c(nc6cc(C)ccn65)c4c3C2=O)NC(=O)/C(C)=C\C=C\[C@H](C)[C@H](O)[C@@H](C)[C@@H](O)[C@@H](C)[C@H](OC(C)=O)[C@@H]1C` [Epsilon, rifaximin], for which, in series [2], the AUC was 77 ng·h/mL and the highest concentration (Cmax) was 6.9 ng/mL.
`CO[C@H]1/C=C/O[C@@]2(C)Oc3c(C)c(O)c4c(O)c(c5c(nc6cc(C)ccn65)c4c3C2=O)NC(=O)/C(C)=C\C=C\[C@H](C)[C@H](O)[C@@H](C)[C@@H](O)[C@@H](C)[C@H](OC(C)=O)[C@@H]1C` [Gamma, rifaximin]: in series [2], the AUC was 4,894 ng/ml × h and the highest concentration (Cmax) is recorded as 1,085.1 ng/ml.
Take `CO[C@H]1/C=C/O[C@@]2(C)Oc3c(C)c(O)c4c(O)c(c5c(nc6cc(C)ccn65)c4c3C2=O)NC(=O)/C(C)=C\C=C\[C@H](C)[C@H](O)[C@@H](C)[C@@H](O)[C@@H](C)[C@H](OC(C)=O)[C@@H]1C` [amorphous, rifaximin]: in series [1] (200 mg), the AUC was 16.13 ng·h/mL and the Cmax is 3.70 ng/mL. Also, in series [1] (400 mg), the area under the curve (AUC) is 68.80 ng·h/mL and the Cmax is 15.01 ng/mL. Also, in series [1] (setting [4]), the AUCt is 68.80 ng·h/mL and the Cmax was 15.01 ng/mL.
